Results taken from patent US11168059B2, “Amino sulfonyl compounds” (CV6 Therapeutics (NI) Limited, priority 2016, dated 2021).
pIC50: −log10 of the molar value.

Key:
[1] = molecular target: T1, recombinant human deoxyuridine nucleotidohydrolase (dUTPase) (Homo sapiens, UniProt P33316); assay: dUTPase inhibition, fluorescence-based DNA polymerase assay; format: biochemical; conditions: for % relative inhibition vs. positive control: mean over three concentrations, typically 100, 50 and 25 μmol/L, relative to in-run positive control
T1 construct: made in house
T1 sequence (P33316 1-164 isoform P33316-2): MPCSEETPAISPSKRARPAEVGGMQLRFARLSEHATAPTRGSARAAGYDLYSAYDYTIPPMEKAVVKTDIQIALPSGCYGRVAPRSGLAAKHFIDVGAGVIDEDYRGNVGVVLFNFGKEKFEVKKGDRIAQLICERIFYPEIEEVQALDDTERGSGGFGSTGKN
Source text: Recombinant human deoxyuridine nucleotidohydrolase (dUTPase) is expressed and purified as described in Ladner R D, Carr S A, Huddleston M J, McNulty D E, Caradonna S J. J Biol Chem. 1996 Mar. 29; 271(13):7752-7. All drugs stocks are aliquoted and diluted as appropriate prior to use. The oligonucelotide primer, templates and fluorophore- and quencher-labeled detection probes are synthesized by Integrated DNA Technologies (Coralville, Iowa), subjected to polyacrylamide gel electrophoresis purification and reconstituted in Omnipur sterile nuclease-free water (EMD Chemicals USA, Gibbstown N.J.) at a stock concentration of 100 μmol/L. The two non-emissive (dark) quenching molecules incorporated into the detection probes include the Iowa black fluorescein quencher (IBFQ; absorption max 531 nm) and ZEN (non-abbreviation; absorption max 532 nm). The fluorescent label utilized is 6-FAM (5′-carboxyfluorescein; excitation max.=494 nm, emission max.=520 nm). Probes are further diluted to a working stock of 10 μmol/L and aliquoted to avoid repeated freeze/thaw cycles. AmpliTaq Gold DNA Polymerase, GeneAmp 10×PCR Buffer 2, MgCl2 and MicroAmp Optical 96-well Reaction Plates are purchased from Applied Biosystems (Carlsbad, Calif.). dNTPs are purchased individually at stock concentrations of 100 mmol/L from New England Biolabs at HPLC-certified >99% purity (Ipswich, Mass.).
Reaction mixtures contained primer, probe and template at an equimolar final concentration of 0.4 μmol/L. Magnesium chloride (MgCl2) is included at a final concentration of 2 mmol/L. Non-limiting dNTPs are included in the reaction mix in excess at a final concentration of 100 μmol/L (dUTP/dTTP is excluded). AmpliTaq Gold DNA polymerase is added at 0.875 U/reaction, 2.5 μl of 10×PCR buffer 2 added and nuclease-free ddH2O added to a final reaction volume of 25 μl. For dUTP inhibition analysis, the volume of ddH2O is further modified to accommodate an additional 1 μl of dUTPase (10 ng/μl) and 1 μl of inhibitor or DMSO control. Thermal profiling and fluorescence detection is performed using a customized thermal program on board a Roche Lightcycler LC480 Instrument II. For analysis of dNTPs, the thermal profile consisted of an 8 min 37° C. step followed by a 10 min 95° C. step to ‘hot-start’ the Taq polymerase and a primer extension time of up to 30 min at 60° C. Raw fluorescence spectra for 6-FAM is measured at specified time intervals to follow assay progression on board a Roche LightCycler 480 Software Version 1.5 and exported and analyzed in Microsoft Excel (Microsoft, Redmond Wash.) and Prism (GraphPad Software, La Jolla Calif.). Fluorescence values for blank reactions (limiting dNTP omitted) are subtracted to give normalized fluorescence units (NFU) to account for background fluorescence.
Test compounds are screened in a fluorescence-based assay. The assay employs a DNA polymerase-based approach utilizing an oligonucleotide template with 3 distinct regions: a 3′ primer binding region, a mid-template dUTP/thymidine triphosphate (TTP) detection region and a 5′ 6-[…] (FAM)-labeled probe binding region that incorporates a black hole quenching moiety. During the reaction, the probe and primer hybridize to the oligonucleotide template to form the template:primer:probe complex. When Taq polymerase binds to the primer in the TPP complex and dUTP is present, successful extension of the nascent strand occurs and the inherent 5′ to 3′ exonuclease activity of Taq polymerase cleaves and displaces the 6-FAM-labeled probe in a 5′ to 3′ direction, releasing the 6-FAM fluorophore from its proximity to the […]. This displacement effectively disrupts the Forster resonance energy transfer (FRET) and the resulting fluorescence detected upon excitation is directly proportional to the amount of the dUTP available in the assay for incorporation. […]

[2] = test system: colorectal (HCT 116 and SW620) cell line models; assay: MTS growth inhibition assay; format: cell-based; conditions: 5-FU between 0 and 100 μmol/L; both colorectal cancer cell lines
Procedure: The Cell Titer AQueous MTS assay (Promega) is carried out according to the manufacturers guidelines. […] The combination effect is determined by the combination index (CI) method utilizing Calcusyn software (Biosoft, Ferguson, Mo.). […] CI values <1, synergism; 1-1.2, additive and >1.2, antagonism.
Test compounds are evaluated for their antitumor activity in colorectal cancer cells using the MTS growth inhibition assay. HCT116 and SW620 cells are exposed to increasing concentrations of each agent for 72 hours and growth inhibition is directly compared to vehicle-treated controls. The NSCLC cell lines A549 and H1299 are exposed to increasing concentrations of each agent for 72 hours and growth inhibition is directly compared to vehicle-treated controls.
Simultaneous treatment with increasing concentrations of 5-FU and a test compound at fixed concentrations of 25 μmol/L is determined.

[3] = test system: colorectal (HCT116), breast (MCF-7) and non-small cell lung (H1299, A549, H358 and H460) cell line models; assay: Colony forming assay; format: cell-based; conditions: FUdR between 0.5 and 2.5 μmol/L; all cell lines evaluated
Procedure: Colony forming assay showing the ability of colon (SW620, HCT116), non-small cell lung (A549, H460, H1299 and H358) and breast (MCF7) cancer cells to survive and proliferate following transient 24 hour exposure to test compounds, FUdR and combinations are determined. Specifically, cells are seeded at densities between 50 and 100 cells/well in 24-well plates. Twenty-four hours later, cells are treated with increasing concentrations of a rtest compound, a fixed dose of FUdR and combinations of these. After 24 hours, drug is removed, cells are rinsed and allowed to outgrow for 10-14 days. At the conclusion of the outgrowth, cells are fixed in 60% ice cold methanol and stained with 0.1% crystal violet, scanned and counted. Data is presented as percentage of untreated controls (mean±SD). Fraction affected and combination indexes are calculated according to the method of Chou and Talalay where <1 is indicative of a synergistic drug interaction.
Colony forming assays are performed to evaluate the effectiveness of test compounds alone and in combination with the fluoropyrimidine thymidylate synthase (TS) inhibitor fluorodeoxyuridine (FUdR) at reducing cancer cell viability in colorectal (HCT116), breast (MCF-7) and non-small cell lung (H1299, A549, H358 and H460) cell line models. […]

| SMILES | % relative inhibition vs. positive control [1] [%] | other results |
| --- | --- | --- |
| CC(C)COc1cc(S(=O)(=O)NCCCCCCN2CC(=O)NC2=O)ccc1F [Compound 45b, N-(6-(2,4-dioxoimidazolidin-1-yl)hexyl)-4-fluoro-3-isobutoxybenzenesulfonamide] | 151 | – |
| O=C1CCN(C/C=C/CCCNS(=O)(=O)c2ccc(F)c(OCC3CC3)c2)C(=O)N1 [Compound 49b, (E)-3-(cyclopropylmethoxy)-N-(6-(2,4-dioxotetrahydropyrimidin-1(2H)-yl)hex-4-en-1-yl)-4-fluorobenzenesulfonamide] | 144 | – |
| O=c1[nH]cc(F)c(=O)[nH]1 [Example 5-FU, 5-fluorouracil] | – | growth inhibition [2]: dose-dependent increases in growth inhibition |
| O=C1CN(CCOCCCNS(=O)(=O)c2cccc(OCC3CC3)c2)C(=O)N1 [Example 42, 3-(cyclopropylmethoxy)-N-(3-(2-(2,4-dioxoimidazolidin-1-yl)ethoxy)propyl)benzenesulfonamide] | 136 | – |
| O=C1CCN(C/C=C/CCCNS(=O)(=O)c2ccc(F)c(OCC3CC3)c2)C(=O)N1 [Compound 49a, (E)-3-(cyclopropylmethoxy)-N-(6-(2,4-dioxotetrahydropyrimidin-1(2H)-yl)hex-4-en-1-yl)-4-fluorobenzenesulfonamide] | 151 | – |
| CC(C)COc1cc(S(=O)(=O)NCCC/C=C/CN2CCC(=O)NC2=O)ccc1F [Compound 50a, (E)-N-(6-(2,4-dioxotetrahydropyrimidin-1(2H)-yl)hex-4-en-1-yl)-4-fluoro-3-isobutoxybenzenesulfonamide] | 156 | – |
| CC(C)COc1cc(S(=O)(=O)NCCCCCCN2CCC(=O)NC2=O)ccc1F [Compound 50b, N-(6-(2,4-dioxotetrahydropyrimidin-1(2H)-yl)hexyl)-4-fluoro-3-isobutoxybenzenesulfonamide] | 141 | – |
| CC(C)COc1cc(S(=O)(=O)NCCC/C=C/CN2CC(=O)NC2=O)ccc1F [Compound 45a, (E)-N-(6-(2,4-dioxoimidazolidin-1-yl)hex-4-en-1-yl)-4-fluoro-3-isobutoxybenzenesulfonamide] | 178 | – |
| O=C1CCN(CCCOCCNS(=O)(=O)c2cccc(OCC3CC3)c2)C(=O)N1 [Example 48, 3-(cyclopropylmethoxy)-N-(2-(3-(2,4-dioxotetrahydropyrimidin-1(2H)-yl)propoxy)ethyl)benzenesulfonamide] | 82 | – |
| O=C1CN(CCCCCCNS(=O)(=O)c2ccc(F)c(OCC3CC3)c2)C(=O)N1 [Compound 44b, 3-(cyclopropylmethoxy)-N-(6-(2,4-dioxoimidazolidin-1-yl)hexyl)-4-fluorobenzenesulfonamide] | 168 | – |
| O=C1CN(Cc2ccc(CNS(=O)(=O)c3cccc(OC4CCCC4)c3)cc2)C(=O)N1 [Example 40, 3-(cyclopentyloxy)-N-(4-((2,4-dioxoimidazolidin-1-yl)methyl)benzyl)benzenesulfonamide] | 53 | pIC50 [1]: 5.85 |
| O=c1[nH]c(=O)n([C@H]2C[C@H](O)[C@@H](CO)O2)cc1F [FUdR, fluorodeoxyuridine] | – | colonies formed [3]: dose-dependent decreases in colonies formed |
| CC(C)(NS(=O)(=O)c1cccc(OC2CCCC2)c1)c1ccc(CN2CC(=O)NC2=O)cc1 [Example 41, 3-(cyclopentyloxy)-N-(2-(4-((2,4-dioxoimidazolidin-1-yl)methyl)phenyl)propan-2-yl)benzenesulfonamide] | 249 | pIC50 [1]: 6.52 |
| O=C1CN(C/C=C/CCCNS(=O)(=O)c2cccc(OCC3CC3)c2)C(=O)N1 [Compound 44a, (E)-3-(cyclopropylmethoxy)-N-(6-(2,4-dioxoimidazolidin-1-yl)hex-4-en-1-yl)benzenesulfonamide] | 159 | – |
| O=C1CCN(CCOCCCNS(=O)(=O)c2cccc(OCC3CC3)c2)C(=O)N1 [Example 47, 3-(cyclopropylmethoxy)-N-(3-(2-(2,4-dioxotetrahydropyrimidin-1(2H)-yl)ethoxy)propyl) benzenesulfonamide] | 8 | – |
